Source: patent publication US6603023B2 (priority 1996, dated 2003)
Values joined by “and” are separate entries in the source; they are usually repeats but may differ in a detail not shown here. Identical values can stand only once. Counter-ions that a name gives are not always drawn. Like-named read-outs stand apart in the source and are kept apart here.

How the values were obtained:
[1] = tested on: DC-3F hamster lung fibroblast cell line; assay: SRB cytotoxicity, DC-3F; format: cell-based
Summary of the method: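 Cellular protein content measured with sulforhodamine B after trichloroacetic acid fixation, read at 570 nm. Each duplicate run used six to seven concentrations, analysed by the median-effect method. Cells were cultured at 37 °C, 5% CO2 in RPMI 1640-10% FBS, and drug-resistant lines were maintained with their selecting agent.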

[2] = tested on: MCF-7/Adr; assay: cells; format: cell-based, human; details: for folds of resistance (IC50 ratio vs parent cell line): MCF-7/Adr vs MCF-7; for IC50: 72 h
Procedure: Cultures were fixed with trichloroacetic acid and then stained for 30 min with 0.4% suforhodamine B dissolved in 1% acetic acid. Unbound dye was removed by acetic acid washes, and the protein-bound dye was extracted with an unbuffered Tris base (tris(hydroxy-methyl)aminomethane) for determination of absorbance at 570 nm in a 96-well microtiter plate reader. The experiments were carried out in duplicate. Each run entailed six to seven concentrations of the tested drugs.

[3] = tested on: CCRF-CEM/Taxol®; assay: cells; format: cell-based, human; details: for IC50: 72 h
Summary of the method: (§1)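 Growth was read by XTT/PMS reduction over 4 h at 37 °C after 72 h of compound treatment, with absorbance at 450 nm and 630 nm. CCRF-CEM, P388 and their resistant sublines, grown continuously with their selecting drugs, were cultured in duplicate at 5×10^4 cells/mL. The medium was RPMI-1640 with 10% FBS.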

[4] = tested on: CCRF-CEM/VBL100; assay: cells; format: cell-based, human; details: for fold resistance (cross-resistance) vs parent CCRF-CEM: CCRF-CEM/VBL100 MDR cells; for (B)/(A) IC50 ratio: CCRF-CEM/VBL100 vs CCRF-CEM
Summary of the method: as §1

[5] = tested on: human neuroblastoma SK-N-As; assay: SRB cytotoxicity, SK-N-As; format: cell-based; details: 72 h
Procedure: The DC-3F hamster lung fibroblast cell line and its actinomycin D-selected sublines (DC-3F/ADII and DC-3F/ADX) were obtained from the Memorial Sloan-Kettering Cancer Center (MSKCC).
The drug-resistant cell lines were continuously cultured in the presence of the selecting agent, AD, DX, VBL or VM to maintain the drug resistant phenotypes. […] All cells were cultured in RPMI 1640-10% FBS at 37° C. 5% CO2 (see below).
The cytotoxicity of the drug toward the monolayer cell cultures (such as DC-3F, MCF-7, SK-N-As and sublines) was determined in 96-well microtiter plates by the SRB method as described by Skehan and co-workers (Skehan, P., et al., J. Natl. Cancer Inst. 1990, 82, 1107-1112) for measuring the cellular protein content. Cultures were fixed with trichloroacetic acid and then stained for 30 min with 0.4% suforhodamine B dissolved in 1% acetic acid. Unbound dye was removed by acetic acid washes, and the protein-bound dye was extracted with an unbuffered Tris base (tris(hydroxy-methyl)aminomethane) for determination of absorbance at 570 nm in a 96-well microtiter plate reader. The experiments were carried out in duplicate. Each run entailed six to seven concentrations of the tested drugs. Data were analyzed with the median-effect plot (Chou, T.-C. & Talalay, P. T. (1984) Adv. Enzyme Regul. 22, 27-55) using a previously described computer program (Chou, J., & Chou T.-C. 1987, Dose-effect analysis with microcomputers: Quantitation of ED50, synergism, antagonism, low-dose risk, reception-ligand binding and enzyme kinetics, IBM-PC software and manual, Biosoft, Cambridge, U.K.).

[6] = Table 1C, SRB, 72 h, read-out: IC50
[7] = Mesocricetus auratus, DC3F, Table 3

Which results are given for `C/C1=C/C[C@@H](/C(C)=C/c2csc(C)n2)OC(=O)C[C@H](O)C(C)(C)C(=O)[C@H](C)[C@@H](O)[C@@H](C)CCC1` [Desoxyepothilone B, desoxyepothilone B]?
IC50 [1, 6]: 0.97 nM; fold resistance vs parent MCF-7 ([2]; MCF-7/Adr cells, listed as dEpoB): 2.4 fold; folds of resistance (IC50 ratio vs parent cell line) ([2]; Table 1C): (2.4x); IC50 ([2]; Table 1C, SRB, read-out: IC50): 7.1 nM; (C)/(A) IC50 ratio [3]: 1.7; IC50 ([3]; Table 1A, XTT, read-out: IC50): 16.2 nM; fold resistance (cross-resistance) vs parent CCRF-CEM ([4]; listed as dEpoB): 1.8 fold; IC50 ([4]; Table 1, XTT, read-out: IC50): 17 nM; (B)/(A) IC50 ratio ([4]; Table 1A): 1.8; IC50 ([4]; Table 1A, XTT, 72 h, read-out: IC50): 17 nM; IC50 ([4]; Table 6, single determinations, read-out: IC50): 17 nM; IC50 ([4]; Table 7, CEM/VBL, read-out: IC50): 16.9 nM; IC50 ([4]; read-out: IC50): 17 nM; IC50 ([5]; Table 1C, SRB, read-out: IC50): 21 nM

With `C/C(=C\c1csc(C)n1)[C@@H]1C[C@@H]2O[C@]2(C)CCC[C@H](C)[C@H](O)[C@@H](C)C(=O)C(C)(C)[C@@H](O)CC(=O)O1` [Epothilone B, epothilone B] as the molecule, how does the IC50 [1, 6] read?
Its IC50 is 0.6 nM.

What about the “folds of resistance (IC50 ratio vs parent cell line)” value ([2]; Table 1C) of the same molecule?
The value was “(5.4x)”.

And the IC50 ([2]; Table 1C, SRB, read-out: IC50)?
Its IC50 is 2.7 nM.

What about the “(C)/(A) IC50 ratio” value ([3]; Table 1A, CCRF-CEM/Taxol vs CCRF-CEM) of the same molecule?
Its value is 3.1.

What about the IC50 ([3]; Table 1A, XTT, read-out: IC50) of the same molecule?
Its IC50 is 1.1 nM.

And the “fold resistance (cross-resistance) vs parent CCRF-CEM” value [4]?
Its value is 5 fold.

What about the “fold resistance (cross-resistance) vs parent CCRF-CEM” value ([4]; listed as EpoB) of the same molecule?
The value was 6.1 fold.

What about the “Potency in parentheses relative to Epo B in CCRF-CEM cells” value ([4]; CCRF-CEM/VBL MDR cells) of the same molecule?
The value was 1/6.

What about the “Potency in square brackets relative to Epo B in CCRF-CEM/VBL MDR cells” value ([4]; CCRF-CEM/VBL MDR cells) of the same molecule?
The value was 1.

What about the IC50 ([4]; Table 1, XTT, read-out: IC50) of the same molecule?
Its IC50 is 3 nM.

And the “(B)/(A) IC50 ratio” value ([4]; Table 1A)?
The value was 6.1.

What about the IC50 ([4]; listed as Epo B, read-out: IC50) of the same molecule?
Its IC50 is 2.1 nM.

And the IC50 ([4]; read-out: IC50)?
Its IC50 is 2 nM.

What about the IC50 ([5]; Table 1C, SRB, read-out: IC50) of the same molecule?
Its IC50 is 4 nM.

Which results are given for `CC[C@]1(O)C[C@@H]2CN(CCc3c([nH]c4ccccc34)[C@@](C(=O)OC)(c3cc4c(cc3OC)N(C)[C@H]3[C@@](O)(C(=O)OC)[C@H](OC(C)=O)[C@]5(CC)C=CCN6CC[C@]43[C@@H]65)C2)C1` [Vinblastine, Vinblastine sulfate]?
IC50 [1, 7]: 2.65 nM; IC50 ([3]; Homo sapiens, CCRF-CEM): 6.9 nM; IC50 ([4]; Homo sapiens, CCRF-CEM): 332 nM; IC50 ([4]; Homo sapiens, CCRF-CEM, 72 h, Table 1A, XTT): 332 nM; IC50 ([4]; Homo sapiens, CCRF-CEM, Table 2, CCRF-CEM/VLB): 465 nM; IC50 ([4]; Homo sapiens, CCRF-CEM, Table 5, CCRF-CEM/VLB, single determinations): 440 nM; IC50 ([4]; Homo sapiens, CCRF-CEM, read-out: IC50 (mean ± of determinations, in parentheses), Table 5): 332 nM; IC50 ([4]; Table 5, CCRF-CEM/VLB, single determinations): 221 nM and 336 nM

How did the IC50 ([1]; Mesocricetus auratus, DC3F, 72 h, Table 1C, SRB) turn out when `CC(=O)O[C@H]1C(=O)[C@@]2(C)[C@H]([C@H](OC(=O)c3ccccc3)[C@]3(O)C[C@H](OC(=O)[C@H](O)[C@@H](NC(=O)c4ccccc4)c4ccccc4)C(C)=C1C3(C)C)[C@]1(OC(C)=O)CO[C@@H]1C[C@@H]2O` [Taxol ®, paclitaxel] was run?
The IC50 was 95 nM.

What about the IC50 [1, 7] of the same molecule?
Its IC50 is 94.7 nM.

And the IC50 ([1]; Mesocricetus auratus, DC3F, relative potency ordering)?
The IC50 was 90 nM.

And the IC50 ([2]; Homo sapiens, NCI/ADR-RES)?
The IC50 was 150 nM.

What about the IC50 ([5]; Homo sapiens, SK-N-AS) of the same molecule?
Its IC50 is 1.6 nM.
